Measured values taken from ChEMBL document CHEMBL5108027, “An unanticipated discovery of novel naphthalimidopropanediols as potential broad-spectrum antibacterial members” (Eur J Med Chem, 2022).
Values after ≈ are worked out from the molar mass of the structure shown.

Columns and labels:
Type in all cases: functional
[1] = tested on: Staphylococcus aureus; assay: Antibacterial activity against methicillin-resistant Staphylococcus aureus N315 measured by Muller-Hinton broth based microdilution assay
[2] = tested on: Enterococcus faecalis; assay: Antibacterial activity against Enterococcus faecalis measured by Muller-Hinton broth based microdilution assay
[3] = tested on: Staphylococcus aureus; assay: Antibacterial activity against Staphylococcus aureus measured by Muller-Hinton broth based microdilution assay
[4] = tested on: Staphylococcus aureus; assay: Antibacterial activity against Staphylococcus aureus ATCC 25923 measured by Muller-Hinton broth based microdilution assay
[5] = tested on: Staphylococcus aureus; assay: Antibacterial activity against Staphylococcus aureus ATCC 29213 measured by Muller-Hinton broth based microdilution assay
[6] = tested on: Klebsiella pneumoniae; assay: Antibacterial activity against Klebsiella pneumoniae measured by Muller-Hinton broth based microdilution assay
[7] = tested on: Escherichia coli; assay: Antibacterial activity against Escherichia coli measured by Muller-Hinton broth based microdilution assay
[8] = tested on: Pseudomonas aeruginosa; assay: Antibacterial activity against Pseudomonas aeruginosa measured by Muller-Hinton broth based microdilution assay
[9] = tested on: Acinetobacter baumannii; assay: Antibacterial activity against Acinetobacter baumannii measured by Muller-Hinton broth based microdilution assay
[10] = tested on: Pseudomonas aeruginosa; assay: Antibacterial activity against Pseudomonas aeruginosa ATCC 27853 measured by Muller-Hinton broth based microdilution assay
[11] = tested on: Escherichia coli; assay: Antibacterial activity against Escherichia coli ATCC 25922 measured by Muller-Hinton broth based microdilution assay

Structure (SMILES)	MIC [1] [µg/mL]	MIC [2] [µg/mL]	MIC [3] [µg/mL]	MIC [4] [µg/mL]	MIC [5] [µg/mL]	MIC [6] [µg/mL]	MIC [7] [µg/mL]	MIC [8] [µg/mL]	MIC [9] [µg/mL]	MIC [10] [µg/mL]	MIC [11] [µg/mL]
O=C1c2cccc3c(N/N=C/c4nc5ccccc5[nH]4)ccc(c23)C(=O)N1C(CO)CO	64 (≈ 149 µM)	64 (≈ 149 µM)	32 (≈ 74.5 µM)	64 (≈ 149 µM)	128 (≈ 298 µM)	32 (≈ 74.5 µM)	8 (≈ 18.6 µM)	16 (≈ 37.3 µM)	64 (≈ 149 µM)	64 (≈ 149 µM)	32 (≈ 74.5 µM)
O=C1c2cccc3c(N/N=C/c4ccc(F)cc4)ccc(c23)C(=O)N1C(CO)CO	64 (≈ 157 µM)	64 (≈ 157 µM)	64 (≈ 157 µM)	32 (≈ 78.5 µM)	4 (≈ 9.82 µM)	32 (≈ 78.5 µM)	64 (≈ 157 µM)	8 (≈ 19.6 µM)	32 (≈ 78.5 µM)	32 (≈ 78.5 µM)	64 (≈ 157 µM)
O=C1c2cccc3c(N/N=C/c4ccccc4)ccc(c23)C(=O)N1C(CO)CO	64 (≈ 164 µM)	64 (≈ 164 µM)	64 (≈ 164 µM)	2 (≈ 5.14 µM)	32 (≈ 82.2 µM)	16 (≈ 41.1 µM)	128 (≈ 329 µM)	1 (≈ 2.57 µM)	64 (≈ 164 µM)	32 (≈ 82.2 µM)	64 (≈ 164 µM)
O=C1c2cccc3c(N/N=C/c4ccccc4Cl)ccc(c23)C(=O)N1C(CO)CO	64 (≈ 151 µM)	64 (≈ 151 µM)	64 (≈ 151 µM)	32 (≈ 75.5 µM)	8 (≈ 18.9 µM)	16 (≈ 37.7 µM)	128 (≈ 302 µM)	16 (≈ 37.7 µM)	64 (≈ 151 µM)	32 (≈ 75.5 µM)	64 (≈ 151 µM)
O=C1c2cccc3c(N/N=C/c4ccc(OC(F)(F)F)cc4)ccc(c23)C(=O)N1C(CO)CO	32 (≈ 67.6 µM)	2 (≈ 4.22 µM)	4 (≈ 8.45 µM)	32 (≈ 67.6 µM)	4 (≈ 8.45 µM)	2 (≈ 4.22 µM)	32 (≈ 67.6 µM)	8 (≈ 16.9 µM)	16 (≈ 33.8 µM)	8 (≈ 16.9 µM)	32 (≈ 67.6 µM)
C=CCn1cc(/C=N/Nc2ccc3c4c(cccc24)C(=O)N(C(CO)CO)C3=O)c2ccccc21	64 (≈ 137 µM)	64 (≈ 137 µM)	64 (≈ 137 µM)	16 (≈ 34.2 µM)	32 (≈ 68.3 µM)	4 (≈ 8.54 µM)	32 (≈ 68.3 µM)	128 (≈ 273 µM)	64 (≈ 137 µM)	64 (≈ 137 µM)	16 (≈ 34.2 µM)
CCCCCCCCCCn1cc(/C=N/Nc2ccc3c4c(cccc24)C(=O)N(C(CO)CO)C3=O)c2ccccc21	64 (≈ 113 µM)	64 (≈ 113 µM)	16 (≈ 28.1 µM)	16 (≈ 28.1 µM)	32 (≈ 56.3 µM)	16 (≈ 28.1 µM)	32 (≈ 56.3 µM)	128 (≈ 225 µM)	64 (≈ 113 µM)	32 (≈ 56.3 µM)	32 (≈ 56.3 µM)
CCCCCCCCCCCCCCCCn1cc(/C=N/Nc2ccc3c4c(cccc24)C(=O)N(C(CO)CO)C3=O)c2ccccc21	64 (≈ 98 µM)	64 (≈ 98 µM)	8 (≈ 12.3 µM)	32 (≈ 49 µM)	64 (≈ 98 µM)	32 (≈ 49 µM)	32 (≈ 49 µM)	64 (≈ 98 µM)	64 (≈ 98 µM)	32 (≈ 49 µM)	64 (≈ 98 µM)
O=C1c2cccc3c(N/N=C/c4ccc5ccccc5n4)ccc(c23)C(=O)N1C(CO)CO	2 (≈ 4.54 µM)	64 (≈ 145 µM)	4 (≈ 9.08 µM)	64 (≈ 145 µM)	128 (≈ 291 µM)	32 (≈ 72.7 µM)	4 (≈ 9.08 µM)	2 (≈ 4.54 µM)	64 (≈ 145 µM)	8 (≈ 18.2 µM)	64 (≈ 145 µM)
O=C1c2cccc3c(N/N=C/c4ccco4)ccc(c23)C(=O)N1C(CO)CO	32 (≈ 84.3 µM)	32 (≈ 84.3 µM)	32 (≈ 84.3 µM)	32 (≈ 84.3 µM)	32 (≈ 84.3 µM)	64 (≈ 169 µM)	32 (≈ 84.3 µM)	32 (≈ 84.3 µM)	32 (≈ 84.3 µM)	16 (≈ 42.2 µM)	64 (≈ 169 µM)
O=C1c2cccc3c(N/N=C/c4cccc(F)c4)ccc(c23)C(=O)N1C(CO)CO	32 (≈ 78.5 µM)	32 (≈ 78.5 µM)	16 (≈ 39.3 µM)	64 (≈ 157 µM)	64 (≈ 157 µM)	2 (≈ 4.91 µM)	64 (≈ 157 µM)	32 (≈ 78.5 µM)	64 (≈ 157 µM)	32 (≈ 78.5 µM)	64 (≈ 157 µM)
Cc1ccc(/C=N/Nc2ccc3c4c(cccc24)C(=O)N(C(CO)CO)C3=O)cc1	16 (≈ 39.7 µM)	64 (≈ 159 µM)	0.5 (≈ 1.24 µM)	32 (≈ 79.3 µM)	4 (≈ 9.91 µM)	8 (≈ 19.8 µM)	64 (≈ 159 µM)	64 (≈ 159 µM)	64 (≈ 159 µM)	1 (≈ 2.48 µM)	32 (≈ 79.3 µM)
O=C1c2cccc3c(N/N=C/c4ncc[nH]4)ccc(c23)C(=O)N1C(CO)CO	64 (≈ 169 µM)	64 (≈ 169 µM)	32 (≈ 84.3 µM)	64 (≈ 169 µM)	128 (≈ 337 µM)	64 (≈ 169 µM)	16 (≈ 42.2 µM)	8 (≈ 21.1 µM)	64 (≈ 169 µM)	4 (≈ 10.5 µM)	64 (≈ 169 µM)
O=C1c2cccc3c(N/N=C/c4ccc(O)cc4O)ccc(c23)C(=O)N1C(CO)CO	16 (≈ 38 µM)	16 (≈ 38 µM)	16 (≈ 38 µM)	16 (≈ 38 µM)	64 (≈ 152 µM)	4 (≈ 9.49 µM)	64 (≈ 152 µM)	64 (≈ 152 µM)	64 (≈ 152 µM)	32 (≈ 75.9 µM)	32 (≈ 75.9 µM)
O=C1c2cccc3c(N/N=C/c4cccc(O)c4)ccc(c23)C(=O)N1C(CO)CO	128 (≈ 316 µM)	128 (≈ 316 µM)	256 (≈ 631 µM)	32 (≈ 78.9 µM)	256 (≈ 631 µM)	128 (≈ 316 µM)	256 (≈ 631 µM)	256 (≈ 631 µM)	256 (≈ 631 µM)	256 (≈ 631 µM)	256 (≈ 631 µM)
O=C1c2cccc3c(N/N=C/c4cccs4)ccc(c23)C(=O)N1C(CO)CO	4 (≈ 10.1 µM)	16 (≈ 40.5 µM)	64 (≈ 162 µM)	64 (≈ 162 µM)	8 (≈ 20.2 µM)	4 (≈ 10.1 µM)	32 (≈ 80.9 µM)	64 (≈ 162 µM)	64 (≈ 162 µM)	32 (≈ 80.9 µM)	32 (≈ 80.9 µM)
CCCCc1nc(Cl)c(/C=N/Nc2ccc3c4c(cccc24)C(=O)N(C(CO)CO)C3=O)[nH]1	64 (≈ 136 µM)	32 (≈ 68.1 µM)	32 (≈ 68.1 µM)	64 (≈ 136 µM)	32 (≈ 68.1 µM)	8 (≈ 17 µM)	16 (≈ 34 µM)	64 (≈ 136 µM)	64 (≈ 136 µM)	8 (≈ 17 µM)	32 (≈ 68.1 µM)
O=C1c2cccc3c(N/N=C/c4cc(Cl)ccc4O)ccc(c23)C(=O)N1C(CO)CO	1 (≈ 2.27 µM)	16 (≈ 36.4 µM)	32 (≈ 72.8 µM)	2 (≈ 4.55 µM)	64 (≈ 146 µM)	64 (≈ 146 µM)	64 (≈ 146 µM)	2 (≈ 4.55 µM)	32 (≈ 72.8 µM)	32 (≈ 72.8 µM)	32 (≈ 72.8 µM)
O=C(Cn1cc(/C=N/Nc2ccc3c4c(cccc24)C(=O)N(C(CO)CO)C3=O)c2ccccc21)N1CCOCC1	256 (≈ 461 µM)	128 (≈ 230 µM)	128 (≈ 230 µM)	64 (≈ 115 µM)	128 (≈ 230 µM)	256 (≈ 461 µM)	256 (≈ 461 µM)	256 (≈ 461 µM)	128 (≈ 230 µM)	128 (≈ 230 µM)	256 (≈ 461 µM)
